Test results taken from patent US20170037007A1, “SUBSTITUTED N-(2-(AMINO)-2OXOETHYL)BENZAMIDE INHIBITORS OF AUTOTAXIN AND THEIR PREPARATION AND USE IN THE TREATMENT OF LPA-DEPENDENT OR LPA-MEDIATED DISEASES” (X-Rx, Inc., priority 2014, published 2017).

Molecular target: T1, Autotaxin (Homo sapiens, UniProt Q13822)
T1 construct: purchased X-Chem
Experiment: Autotaxin LPC Cascade Assay
Assay type: biochemical
Settings: 5 nM autotaxin, 100 μM LPC, choline oxidase/HRP/Ampliflu Red fluorescence readout; read-out: IC50 ATX activity values, IC50
Procedure: Autotaxin LPC Cascade Assay
HA130 and Test Compounds:
Highest final concentration is […] for HA130 (Echelon, B-0701) and 30 μM for test compounds. Prepare a 1 mM stock of HA130 and a 3 mM stock of each compound in 100% DMSO. Perform a 1:3 serial dilution in DMSO (transfer 5 μl of compound to 10 μl of DMSO). Add 240 μl of buffer to generate a top working concentration of 40 µM (HA130) and 120 µM (test compound) in 4% DMSO.
Ampliflu Red—Prepare a stock of 5 mM from 100 mM in 100% DMSO. Further dilute to a working concentration of 400 μM in buffer (8% DMSO).
Together with compound this yields a 2% DMSO final concentration.
Choline Oxidase/HRP—0.8 U/ml CO and 8 U/ml HRP.
Add 5 μl of ATX and 5 μl of compound in a 384 well plate (Corning 3676). Incubate for 10 mins at RT. Add 5 μl of LPC and incubate for 1 hr on the plate shaker. Prepare the CO/HRP and AR prior to use. Add 2.5 μl of CO/HRP and follow with 2.5 μl AR. Note order of addition, CO/HRP mix before AR. Read fluorescence intensity (λex/λem: 530/590 nm) kinetically for 30 min at RT on the Tecan M1000.

Row | Compound | IC50 [nM]
1 | CCc1ccc(F)c(C(=O)N[C@@H](C(=O)N2CCC(C)(CNc3ccc(S(C)(=O)=O)cc3)CC2)C(C)C)c1 [Example 35, (R)-5-Ethyl-2-fluoro-N-(3-methyl-1-(4-methyl-4-((4-(methylsulfonyl)phenylamino)methyl)piperidin-1-yl)-1-oxobutan-2-yl)benzamide] | 100 to 500
2 | CC(C)[C@@H](NC(=O)c1cc(OC(F)(F)F)ccc1F)C(=O)N1CCC(C)(NC(=O)c2ccc(S(C)(=O)=O)cc2)CC1 [Example 37, (R)-2-Fluoro-N-(3-methyl-1-(4-methyl-4-(4-(methylsulfonyl)benzamido)piperidin-1-yl)-1-oxobutan-2-yl)-5-(trifluoromethoxy)benzamide] | 500 to 5000
3 | CC(C)[C@@H](NC(=O)c1cc(OC(F)(F)F)ccc1F)C(=O)N1CCC(C)(NCc2ccc(S(C)(=O)=O)cc2)CC1 [Example 39, (R)-2-Fluoro-N-(3-methyl-1-(4-methyl-4-((4-(methylsulfonyl)benzyl)amino)piperidin-1-yl)-1-oxobutan-2-yl)-5-(trifluoromethoxy)benzamide] | 10 to 100
4 | CC(C)[C@@H](NC(=O)c1cc(Cc2ccccc2)ccc1F)C(=O)N1CCC(C)(Nc2ccc(S(C)(=O)=O)cc2)CC1 [Example 30, (R)-5-Benzyl-2-fluoro-N-(3-methyl-1-(4-methyl-4-(4-(methylsulfonyl)phenylamino)piperidin-1-yl)-1-oxobutan-2-yl)benzamide] | 500 to 5000
5 | CCc1ccc(F)c(C(=O)N[C@@H](C(=O)N2CCC(C)(Nc3ccc(S(C)(=O)=O)cc3)CC2)C(C)C)c1 [Example 4, (R)-5-Ethyl-2-fluoro-N-(3-methyl-1-(4-methyl-4-(4-(methylsulfonyl)phenylamino)piperidin-1-yl)-1-oxobutan-2-yl)benzamide] | 10 to 100
6 | CC(C)[C@@H](NC(=O)c1cccc(OC(F)(F)F)c1)C(=O)N1CCC(C)(NCc2ccc(S(C)(=O)=O)cc2)CC1 [Example 41, (R)—N-(3-Methyl-1-(4-methyl-4-((4-(methylsulfonyl)benzyl)amino)piperidin-1-yl)-1-oxobutan-2-yl)-3-(trifluoromethoxy)benzamide] | 100 to 500
7 | CC1CCc2cc(F)c(C(=O)N[C@@H](C(=O)N3CCC(C)(Nc4ccc(S(C)(=O)=O)cc4)CC3)C(C)C)cc21 (stereo partly drawn) [Example 25, 6-Fluoro-3-methyl-N—((R)-3-methyl-1-(4-methyl-4-(4-(methylsulfonyl)phenylamino)piperidin-1-yl)-1-oxobutan-2-yl)-2,3-dihydro-1H-indene-5-carboxamide] | 100 to 500
8 | CCc1ccc(F)c(C(=O)N[C@@H](C(=O)N2CCC(Oc3ccc(S(C)(=O)=O)cc3)(C(=O)NC)CC2)C(C)C)c1 [Example 15, (R)-1-(2-(5-Ethyl-2-fluorobenzamido)-3-methylbutanoyl)-N-methyl-4-(4-(methylsulfonyl)phenoxy)piperidine-4-carboxamide] | 500 to 5000
9 | CC(C)[C@@H](NC(=O)c1cc(OC(F)(F)F)ccc1F)C(=O)N1CCC(C)(Nc2ccc(S(C)(=O)=O)cc2)CC1 [Example 6, (R)-2-Fluoro-N-(3-methyl-1-(4-methyl-4-(4-(methylsulfonyl)phenylamino)piperidin-1-yl)-1-oxobutan-2-yl)-5-(trifluoromethoxy)benzamide] | 10 to 100
10 | COc1ccc(F)c(C(=O)N[C@@H](C(=O)N2CCC(C)(Nc3ccc(S(C)(=O)=O)cc3)CC2)C(C)C)c1 [Example 5, (R)-2-Fluoro-5-methoxy-N-(3-methyl-1-(4-methyl-4-(4-(methylsulfonyl)phenylamino)piperidin-1-yl)-1-oxobutan-2-yl)benzamide] | 500 to 5000
11 | CCc1ccc(F)c(C(=O)N[C@@H](C(=O)N2CCC(Oc3ccc(S(C)(=O)=O)cc3)(C(=O)N(C)C)CC2)C(C)C)c1 [Example 16, (R)-1-(2-(5-Ethyl-2-fluorobenzamido)-3-methylbutanoyl)-N,N-dimethyl-4-(4-(methylsulfonyl)phenoxy)piperidine-4-carboxamide] | 500 to 5000
12 | CC(C)[C@H](NC(=O)c1cccc(OC(F)(F)F)c1)C(=O)N1CCC(C)(NCc2ccc(S(C)(=O)=O)cc2)CC1 [Example 42, (S)—N-(3-Methyl-1-(4-methyl-4-((4-(methylsulfonyl)benzyl)amino)piperidin-1-yl)-1-oxobutan-2-yl)-3-(trifluoromethoxy)benzamide] | 500 to 5000
13 | CC(C)[C@@H](NC(=O)c1cc(C2CC2)ccc1F)C(=O)N1CCC(C)(Nc2ccc(S(C)(=O)=O)cc2)CC1 [Example 33, (R)-5-Cyclopropyl-2-fluoro-N-(3-methyl-1-(4-methyl-4-(4-(methylsulfonyl)phenylamino)piperidin-1-yl)-1-oxobutan-2-yl)benzamide] | 100 to 500
14 | CC(C)[C@@H](NC(=O)c1cc(C(F)(F)F)ccc1F)C(=O)N1CCC(C)(Nc2ccc(S(C)(=O)=O)cc2)CC1 [Example 27, (R)-2-Fluoro-N-(3-methyl-1-(4-methyl-4-(4-(methylsulfonyl)phenylamino)piperidin-1-yl)-1-oxobutan-2-yl)-5-(trifluoromethyl)benzamide] | 100 to 500
15 | COc1ccc(CNC2(C)CCN(C(=O)[C@H](NC(=O)c3cccc(OC(F)(F)F)c3)C(C)C)CC2)cc1 [Example 43, (R)—N-(1-(4-((4-Methoxybenzyl)amino)-4-methylpiperidin-1-yl)-3-methyl-1-oxobutan-2-yl)-3-(trifluoromethoxy)benzamide] | 500 to 5000
